Experimental data from ChEMBL document CHEMBL4811222, “Antitumor Activity of Asperphenin B by Induction of Apoptosis and Regulation of Glyceraldehyde-3-phosphate Dehydrogenase in Human Colorectal Cancer Cells” (J Nat Prod, 2021).
pIC50: −log10 of the molar value. The source made the active and inactive calls. The rule behind the calls is not given here.

Columns and labels:
[1] = system: RKO; test: Antiproliferative activity against human RKO cells over expressing GAPDH at 1 to 8 uM after 72 hrs by SRB assay; assay type: functional, cell-based; conditions: dose 1-8 µM
[2] = system: LS174T; test: Antiproliferative activity against human LS174T cells assessed as inhibition of cell growth incubated for 72 hrs by SRB assay; assay type: functional, cell-based
[3] = system: RKO; test: Induction of cell cycle arrest in human RKO cells assessed as accumulation at sub-G1 phase at 5 uM after 24 hrs by RNase A/propidium iodide staining based flow cytometric analysis (reference value: 0.40 %); assay type: functional
[4] = system: RKO; test: Induction of cell cycle arrest in human RKO cells assessed as inactivation of Cdc25C protein at 1.25 to 5 uM measured after 24 hrs by Western blot analysis; assay type: functional, cell-based; conditions: dose 1.25-5 µM
[5] = system: RKO; test: Induction of apoptosis in human RKO cells assessed as total apoptotic cells at 5 uM after 48 hrs by Annexin V/PI staining based flow cytometric analysis; assay type: functional
[6] = system: RKO; test: Induction of cell cycle arrest in human RKO cells assessed as accumulation at S phase at 2.5 uM after 24 hrs by RNase A/propidium iodide staining based flow cytometric analysis (reference value: 24.20 %); assay type: functional
[7] = system: RKO; test: Antiproliferative activity against human RKO cells assessed as inhibition of cell growth incubated for 72 hrs by SRB assay; assay type: functional, cell-based
[8] = system: RKO; test: Induction of cell cycle arrest in human RKO cells assessed as accumulation at G2/M phase at 2.5 uM after 36 hrs by RNase A/propidium iodide staining based flow cytometric analysis (reference value: 24.63 %); assay type: functional
[9] = system: RKO; test: Induction of cell cycle arrest in human RKO cells assessed as accumulation at sub-G1 phase at 2.5 uM after 48 hrs by RNase A/propidium iodide staining based flow cytometric analysis (reference value: 0.89 %); assay type: functional
[10] = system: RKO; test: Induction of cell cycle arrest in human RKO cells assessed as accumulation at G2/M phase at 2.5 uM after 24 hrs by RNase A/propidium iodide staining based flow cytometric analysis (reference value: 24.63 %); assay type: functional
[11] = system: RKO; test: Induction of apoptosis in human RKO cells assessed as increase in p53 level at 2.5 uM measured upto 48 hrs by Western blotting analysis; assay type: functional, cell-based; conditions: time hrs <=48
[12] = system: HCT-116; test: Antiinvasive activity against human HCT116 cells implanted in nude mouse assessed as inhibition of liver cells invasion after 24 hrs by transwell assay; assay type: functional, cell-based; conditions: dose 3-6 µM
[13] = system: HCT-116; test: Antiproliferative activity against human HCT-116 cells assessed as inhibition of cell growth incubated for 72 hrs by SRB assay; assay type: functional, cell-based; conditions: HCT-116, 72 h
[14] = system: RKO; test: Induction of cell cycle arrest in human RKO cells assessed as accumulation at G2/M phase at 1.25 uM after 24 hrs by RNase A/propidium iodide staining based flow cytometric analysis (reference value: 24.38 %); assay type: functional
[15] = system: RKO; test: Induction of cell cycle arrest in human RKO cells assessed as accumulation at S phase at 2.5 uM after 48 hrs by RNase A/propidium iodide staining based flow cytometric analysis (reference value: 13.33 %); assay type: functional
[16] = system: RKO; test: Induction of apoptosis in human RKO cells assessed as increase in cleaved caspase 3 expression at 2.5 uM measured upto 48 hrs by Western blotting analysis; assay type: functional, cell-based; conditions: time hrs <=48
[17] = system: RKO; test: Induction of apoptosis in human RKO cells assessed as total apoptotic cells at 1.25 uM after 48 hrs by Annexin V/PI staining based flow cytometric analysis; assay type: functional
[18] = system: RKO; test: Antitumor activity against human RKO cells implanted in BALB/c nude mouse assessed as inhibition of tumor growth at 8 mg/kg, ip administered three times per week for 21 days and measured every 3 to 4 days by electronic caliper method; assay type: functional; conditions: 504 h, time 21 day, read-out: TGI
[19] = system: RKO; test: Induction of cell cycle arrest in human RKO cells assessed as accumulation at sub-G1 phase at 2.5 uM after 36 hrs by RNase A/propidium iodide staining based flow cytometric analysis (reference value: 0.89 %); assay type: functional
[20] = system: RKO; test: Induction of cell cycle arrest in human RKO cells assessed as accumulation at S phase at 2.5 uM after 24 hrs by RNase A/propidium iodide staining based flow cytometric analysis (reference value: 13.33 %); assay type: functional
[21] = system: RKO; test: Antitumor activity against human RKO cells implanted in BALB/c nude mouse assessed as inhibition of tumor growth at 4 mg/kg, ip administered three times per week for 21 days and measured every 3 to 4 days by electronic caliper method; assay type: functional; conditions: 504 h, time 21 day, read-out: TGI
[22] = system: RKO; test: Induction of cell cycle arrest in human RKO cells assessed as accumulation at G0/G1 phase at 2.5 uM after 24 hrs by RNase A/propidium iodide staining based flow cytometric analysis (reference value: 60.58 %); assay type: functional
[23] = system: RKO; test: Antitumor activity against human RKO cells implanted in BALB/c nude mouse assessed as suppression of Ki67 expression level in tumor lysates at 4 to 8 mg/kg, ip administered three times per week for 21 days by Western blotting analysis; assay type: functional, organism-based; conditions: Neoplasm, dose 4-8 mg/kg, time 21.0 day
[24] = system: RKO; test: Induction of apoptosis in human RKO cells assessed as decrease in survivin expression at 2.5 uM by Western blotting analysis; assay type: functional, cell-based; conditions: time 12-48 hrs, TDE = time-dependent effect
[25] = system: RKO; test: Induction of cell cycle arrest in human RKO cells assessed as accumulation at G0/G1 phase at 2.5 uM after 24 hrs by RNase A/propidium iodide staining based flow cytometric analysis (reference value: 51.49 %); assay type: functional
[26] = system: HCT-116; test: Upregulation of E-cadherin expression in […] at 3 to 6 uM after 24 hrs by Western blotting analysis; assay type: functional, cell-based; conditions: dose 3-6 µM
[27] = system: RKO; test: Induction of cell cycle arrest in human RKO cells assessed as accumulation at S phase at 5 uM after 24 hrs by RNase A/propidium iodide staining based flow cytometric analysis (reference value: 24.20 %); assay type: functional
[28] = system: RKO; test: Induction of cell cycle arrest in human RKO cells assessed as accumulation at S phase at 2.5 uM after 12 hrs by RNase A/propidium iodide staining based flow cytometric analysis (reference value: 13.33 %); assay type: functional
[29] = system: CCD-841CoN; test: Antiproliferative activity against human CCD-841CoN cells assessed as inhibition of cell growth incubated for 72 hrs by SRB assay; assay type: cell-based
[30] = system: RKO; test: Induction of cell cycle arrest in human RKO cells assessed as upregulation of phospho-Chk1 expression at 1.25 to 5 uM measured after 24 hrs by Western blot analysis; assay type: functional, cell-based; conditions: dose 1.25-5 µM
[31] = system: RKO; test: Induction of cell cycle arrest in human RKO cells assessed as accumulation at sub-G1 phase at 1.25 uM after 24 hrs by RNase A/propidium iodide staining based flow cytometric analysis (reference value: 0.40 %); assay type: functional
[32] = system: RKO; test: Induction of apoptosis in human RKO cells assessed as total apoptotic cells at 10 uM after 48 hrs by Annexin V/PI staining based flow cytometric analysis; assay type: functional

## CCCCCCCCC[C@@H](O)CC(=O)N[C@@H](CC(N)=O)C(=O)N[C@@H](CCC(N)=O)C(=O)N[C@H](CC(=O)c1cc(C)cc(O)c1C(=O)c1c(O)cccc1O)CC(C)C
[1]
  Activity: Active
[2]
  pIC50: 5.20
[3]
  Activity: 1.1%
[4]
  Activity: Active
[5]
  Activity: 36.58%
[6]
  Activity: 23.35%
[7]
  Activity: Dose-Dependent Effect
  pIC50: 6.03
[8]
  Activity: 63.62%
[9]
  Activity: 17.94%
[10]
  Activity: 48.54%
[11]
  Activity: Active
[12]
  inhibition: Dose-Dependent Effect
[13]
  pIC50: 5.51
[14]
  Activity: 29.42%
[15]
  Activity: 10.43%
[16]
  Activity: Active
[17]
  Activity: 7.85%
[18]
  inhibition in vivo at 8 mg/kg: 57.1%
[19]
  Activity: 3.74%
[20]
  Activity: 16.64%
[21]
  inhibition in vivo at 4 mg/kg: 32.8%
[22]
  Activity: 33.93%
[23]
  Activity: Active
[24]
  Activity: Tde
[25]
  Activity: 32.4%
[26]
  Activity: Active
[27]
  Activity: 22.13%
[28]
  Activity: 16.82%
[29]
  pIC50: 4.33
[30]
  Activity: Active
[31]
  Activity: 0.41%
[32]
  Activity: 51.04%
